The record followed here is patent US6432403B1, “Antibodies to polypeptides having prenylcysteine carboxyl methlytransferase activity or inhibiting activity” (New York University, priority 1997, dated 2002).

Holding throughout (type): biochemical
Assay [1] concerns the target T1, endogenous neutrophil pcCMT (Homo sapiens, UniProt O60725).
T1 construct: endogenous in cells; host or cells: human peripheral blood neutrophils, light membranes (nitrogen cavitation, sucrose density centrifugation)
In words: Carboxyl methylation of Rho GTPases by human neutrophil membranes. The conditions noted are these: stated identical to the recombinant enzyme; read-out: ED50 for endogenous neutrophil pcCMT. Here is the method:
(§1) FIGS. 5A and 5B show the carboxyl methylation of ras-related GTPases by COS-1 cell membranes expressing ectopic human pcCMT. In FIG. 5A, neutrophil cytosol (CS) containing a mixture of Rho family proteins complexed with Rho-GDI (lanes 2, 3, 6, 7, 10, 11) or RhoA-GDI complexes partially purified from CS (lanes 4, 8, 12) were incubated with the methyl donor S-adenosyl-L-[methyl-^3H]methionine and light membranes derived from nitrogen cavitation of human neutrophils (lanes 1-4) or COS-1 cells transiently transfected with either human pcCMT (lanes 5-8) or vector alone (lanes 9-12). In some reactions (lanes 3, 7, 11) a competitive pcCMT inhibitor, AFC, was included. Reaction products were analyzed by SDS-PAGE and fluorography. The position of carboxyl methylated […] is indicated as is the position of protein phosphatase 2a (PP2a) that is methylated on a C-terminal leucine by an enzyme unrelated to pcCMT (Lee et al, 1993). […] Carboxyl methyltransferase activity was quantitated in membranes of COS-1 cells transfected with HL60 pcCMT using prenylcysteine analogs as defined substrates (Philips et al, 1995). […]

Assay [2] deals with T2, human pcCMT (Homo sapiens, UniProt O60725).
T2 construct: The 3.6-kb full-length HL60 pcCMT cDNA and an 852-bp cDNA fragment comprising the ORF were subcloned into the eukaryotic expression vectors; expressed in transfected cells; host or cells: COS-1 cells (pCDM8 vector, DEAE-dextran transfection); light membranes after nitrogen cavitation
T2 sequence (O60725 whole entry, the tested form may be a part): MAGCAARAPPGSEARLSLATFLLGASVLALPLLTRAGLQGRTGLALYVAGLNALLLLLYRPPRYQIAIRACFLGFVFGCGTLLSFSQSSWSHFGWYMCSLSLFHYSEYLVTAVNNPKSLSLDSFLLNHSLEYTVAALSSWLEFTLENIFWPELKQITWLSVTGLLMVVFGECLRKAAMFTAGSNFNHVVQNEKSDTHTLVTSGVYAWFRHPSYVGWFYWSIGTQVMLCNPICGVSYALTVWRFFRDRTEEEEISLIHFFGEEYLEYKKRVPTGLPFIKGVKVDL
In words: Carboxyl methylation of Rho GTPases by COS-1 cell membranes expressing human pcCMT (S-adenosyl-L-[methyl-3H]methionine labeling, SDS-PAGE, fluorography). The conditions noted are these: COS-1 membranes transfected with HL60 cDNA; read-out: ED50 for block of pcCMT activity toward Rho GTPases. The method, then: as §1

Assay [3] concerns the target T2, human pcCMT. In words: Carboxyl methylation of prenylcysteine analogs (AFC, AGGC) as defined substrates by the recombinant enzyme in COS-1 membranes. Here is the method:
Prenylcysteine Carboxyl Methyltransferase Assays: COS-1 cells transfected with HL60 pcCMT or vector alone were harvested at 48 hours with 5 mM EDTA and subjected, in parallel with human neutrophils, to nitrogen cavitation and discontinuous sucrose density centrifugation as described (Philips et al, 1991). Light membranes were assayed for pcCMT activity qualitatively by S-adenosyl-L- [methyl-^3H]methionine labeling (SDS-polyacrylamide gel electrophoresis and flurography) of Rho GTPases partially purified from neutrophil cytosol and quantitatively by carboxyl methylation of N-acetyl-S-trans,trans-farnesyl-L-cysteine (AFC) (heptane partition, alkaline hydrolysis, and measurement of vapor phase [^3H]methanol) as described (Philips et al, 1995)
To determine whether the HL60 STE14 protein homolog has prenylcysteine carboxyl methyltransferase activity, the cDNA was subcloned into a mammalian expression vector PCDM8 (Invitrogen, San Diego, Calif.) and transiently overexpressed ectopically in COS-1 cells. Membranes prepared from these cells were used as a source of recombinant enzyme. Farnesylated Ras GTPases require detergent for extraction from membranes. Therefore, geranylgeranylated neutrophil cytosolic Rho accessory protein, guanine nucleotide dissociation inhibitor (GDI), were utilized as endogenous substrates in an in vitro assay (FIGS. 5A and 5B). Untransfected COS-1 cell membranes had little pcCMT activity toward Rho proteins compared with that of membranes derived from human neutrophils (FIG. 5A). Transfection with the HL60 cDNA conferred pcCMT activity toward Rho GTPases on COS-1 membranes, and this activity was blocked by the competitive pcCMT inhibitor, AFC, with an ED50 (10 μM) identical to that for endogenous neutrophil pcCMT. Carboxyl methylation of Rac2 and RhoA by HL60 pcCMT-transfected COS-1 cell membranes was enhanced by guanosine 5′-3-O-(thio)triphosphate (GTPγS) (FIG. 5B), similar to the activity observed in neutrophil membranes (Philips et al, 1993). Carboxyl methyltransferase activity was quantitated in membranes of COS-1 cells transfected with HL60 pcCMT using prenylcysteine analogs as defined substrates (Philips et al, 1995). Untransfected COS-1 cell membranes had […] (n=5) of the pcCMT specific activity of neutrophil membranes toward AFC.
The Michaelis constants of the recombinant enzyme, Km=7 μM for AFC and 0.6 μM for AGGC, were similar to those for the endogenous neutrophil enzyme (Pillinger et al, 1994). Thus, the cDNA described above encodes authentic human myeloid pcCMT.

Usually Km stands for the concentration of substrate that gives half-maximal velocity.

T1 sequence (O60725 whole entry): as the sequence (O60725 whole entry, the tested form may be a part) above

For `CC(=O)N[C@@H](CSC/C=C(\C)CC/C=C(\C)CCC=C(C)C)C(=O)O` [AFC, N-acetyl-S-trans,trans-farnesyl-L-cysteine], the EC50 (in assay [1]; at human pcCMT [2]) was 10 µM each time. For the same compound, the “Increase in carboxyl methylation of the substrate on pcCMT transfection” value on human pcCMT [3] (n=2) is 20 fold. In addition, the Km on human pcCMT [3] (recombinant enzyme, read-out: Michaelis constant Km) was 7 µM.
